Measurements as given in USRE38425E1, “Semicarbazones having CNS activity and pharmaceutical preparations containing same” (University of Saskatchewan Technologies, Inc., priority 1995, dated 2004).

Legend:
[1] = system: rat livers (liver microsomal system); assay: effect of chronic oral administration on rat livers; type: in vivo, rats; settings: 100 mg/kg orally daily for three days; p>0.05
Description: Further bioevaluations of compound 4b were undertaken.
Rats were administered 100 mg/kg of 4b daily for 3 days. The livers were removed, weighed and the effect of 4b on the liver microsomal system were compared to control animals which received only the vehicle (sonicated 0.5% methylcellulose).^21-23

[2] = system: mice; assay: MES screen after intraperitoneal injection in mice; type: in vivo; settings: time t (h) per compound as in the table
[3] = system: rats; assay: MES screen after oral administration to rats
Description: The majority of the compounds were examined for oral activity in rats. Initially doses of 50 mg/kg of the semicarbazones were administered.
Evaluation of most of the semicarbazones and analogs in the MES and neurotoxicity tests after oral administration to rats was performed.

[4] = in vivo; settings: mouse, ip
[5] = system: mice; assay: subcutaneous strychnine test; type: in vivo; settings: dose range of 13.5-108 mg/kg
From the text: (§1) Compound 4b was also examined for protective effects after subcutaneous administration of strychnine. […] Two animals per dose were used except in the bicuculline and picrotoxin tests for 4b in which cases, 8 or 16 animals per dose were employed.

[6] = system: rats; settings: oral administration to rats; examined ¼-24 h; data taken from reference 1; cited from earlier work
[7] = system: mice; assay: timed intravenous pentylenetetrazole test; type: in vivo; settings: for quantity of pentylenetetrazole administered (SE) to clonus / quantity of pentylenetetrazole administered (SE) to first twitch: mice i.p.
Description: The times from the commencement-of the infusion until the appearances of the first twitch and also the onset of clonus were recorded for the test and control animals. […] Ten animals were used as controls and for each dose administered except for the 13 mg/kg dose of 4b in which case 9 animals were employed.

[8] = system: mice; assay: subcutaneous picrotoxin test; type: in vivo
From the text: as §1

[9] = system: rats; assay: scPTZ screen after intraperitoneal administration to rats; type: in vivo; settings: for protection in the scPTZ screen, rats protected: intraperitoneal administration to rats
[10] = system: rats; assay: MES screen after intraperitoneal injection into rats; type: in vivo; settings: Rattus norvegicus, ip, 4 h
[11] = in vivo; settings: rat, ip
[12] = system: epileptic chicken; assay: epileptic chicken model (intermittent photic stimulation); type: in vivo; settings: Gallus gallus; convulsions induced by intermittent photic stimulation
From the text: Two series of compounds were examined with the aim of observing whether oxygen or sulfur is a preferable spacer atom between the two aryl rings and also to compare the ED50 figures with those obtained in the rat oral and mouse intraperitoneal screens.

[13] = system: kindled rat; assay: kindled rat test (corneal kindled rat screen); type: in vivo, rats; settings: Rattus norvegicus; read-out: ED50 (dose required to reduce seizures from stage 5 to stage 3 or less)
From the text: Particularly preferred compounds according to the present invention are 4-(4′-fluorophenoxy)benzaldehyde semicarbazone and 4-(thiophenoxy)benzaldehyde semicarbazone. […] Incidentally, the kindled rat screen is described by R. J. Racine in “Modification of Seizure Activity by Electrical Stimulation. II. Motor Seizure”, Electroencephalogr.Clin.Neurophysiol., 1972, 32, 281-294, and by G. Skeen et al. In “Development of Kindled Seizures Following Electrical Stimulation via the Cornea”, Soc.Neurosci., 1990, 16(1), 307; the disclosures of which are incorporated herein by reference.
The kindled rat test was undertaken by reported procedures (as indicated above). Compound 4b was administered orally and the animals challenged with electrical stimuli 2h later. The ED50 is the dose required to reduce seizures from stage 5 to stage 3 or less and these stages are described as follows namely stage 1 is mouth and facial clonus, stage 2 is stage 1 plus head nodding, stage 3 is stage 2 plus forelimb clonus, stage 4 is stage 3 plus rearing and stage 5 is stage 4 plus repeated rearing and falling.

[14] = in vivo; settings: rat, po
Description: (§2) Initially doses of 50 mg/kg of the semicarbazones were administered.

[15] = system: mice; assay: subcutaneous bicuculline test; type: in vivo
From the text: as §1

[16] = system: mice; settings: intraperitoneal injection in mice; time t (h) per compound as in the table
Description: An initial anticonvulsant evaluation of the compounds prepared according to Example 1 was undertaken by administering the compounds by the intraperitoneal route to mice. Protection and/or neurotoxicity was noted 0.5 and 4 hours after administering doses of 30, 100 and 300 mg/kg of each semicarbazone to the animals.
Doses of 30, 100 and 300 mg/kg were injected by the intraperitoneal route into mice and evaluated in the MES, scPTZ and neurotoxicity screens one half and four hours after administration.

[17] = system: rats; settings: rat, in vivo, ip
[18] = system: rats; assay: neurotoxicity screen after oral administration to rats; settings: oral dosing of rats; 500 mg/kg
Description: as §2

[19] = oral administration to rats, dose 50 mg/kg, 0.25 h
[20] = oral administration to rats, dose 50 mg/kg, 0.5 h
[21] = oral administration to rats, dose 50 mg/kg, 1 h
[22] = oral administration to rats, dose 50 mg/kg, 2 h
[23] = oral administration to rats, dose 50 mg/kg, 4 h
[24] = TD50 dose (4b 108 mg/kg, 5g 95 mg/kg)
[25] = approximate MES ED50 dose (4b 13 mg/kg, 5g 15 mg/kg)
[26] = various doses (5g 12-96 mg/kg), given 1 h (4b) or 0.5 h (5g) before

NC(=O)NN=Cc1ccc(Oc2ccc(F)cc2)cc1 [Compound 4b, 4-(4′-fluorophenoxy)benzaldehyde semicarbazone]
differences between livers from treated and control rats (liver weights, microsomal protein yields, hepatic enzyme activities) [1]: No differences
ED50 ([2]; Mus musculus, ip, read-out: MES screen ED50 (mg/kg), intraperitoneal injection in mice): 15 to 25 mg/kg
MES screen ED50 ([2]; intraperitoneal injection in mice): 12.86 mg/kg
ED50 ([3]; Rattus norvegicus, po, read-out: MES screen ED50 (mg/kg), oral administration to rats, time t (h) per compound as in the table): 1.59 mg/kg
MES screen 0.25 h: number of rats out of 4 which were protected [3, 19]: 2
MES screen: number of rats out of 4 which were protected [3, 19]: 2
MES screen 0.5 h: number of rats out of 4 which were protected [3, 20]: 4
MES screen: number of rats out of 4 which were protected [3, 20]: 4
MES screen 1 h: number of rats out of 4 which were protected [3, 21]: 4
MES screen: number of rats out of 4 which were protected [3, 21]: 4
MES screen 2 h: number of rats out of 4 which were protected [3, 22]: 4
MES screen: number of rats out of 4 which were protected [3, 22]: 4
MES screen 4 h: number of rats out of 4 which were protected [3, 23]: 4
MES screen: number of rats out of 4 which were protected [3, 23]: 4
TD50 [4]: 108 mg/kg
protection in the subcutaneous strychnine test [5]: no protection
neurotoxicity screen TD50 [6]: >500 mg/kg
quantity of pentylenetetrazole administered (SE) to clonus [7, 24]: 42.1(1.4) mg/kg
quantity of pentylenetetrazole administered (SE) to first twitch [7, 24]: 32.6(0.8) mg/kg
quantity of pentylenetetrazole administered (SE) to clonus [7, 25]: 37.6(1.5) mg/kg
quantity of pentylenetetrazole administered (SE) to first twitch [7, 25]: 32.3(1.4) mg/kg
effect on time to clonus ([7]; mice, dose of 108 mg/kg): increased the time to clonus
proconvulsant properties ([7]; mice, intraperitoneal doses = MES ED50 and TD50 figures, pentylenetetrazole infused after 1 h): Neither compound possessed this undesirable feature
protection in the subcutaneous picrotoxin test (animals protected) ([8]; 27 mg/kg): 1/8
protection in the subcutaneous picrotoxin test (animals protected) ([8]; 108 mg/kg): 5/16
protection in the subcutaneous picrotoxin test (animals protected) ([8]; 216 mg/kg): 2/8
protection against convulsions induced by subcutaneous picrotoxin [8, 26]: partial protection
protection in the scPTZ screen, rats protected ([9]; 125 mg/kg): 0/2
protection in the scPTZ screen, rats protected ([9]; 250 mg/kg): 1/10
protection in the scPTZ screen ([9]; rats, dose of 125 mg/kg): did not afford protection
rats protected in the scPTZ screen ([9]; rats, dose of 250 mg/kg): 10%
ED50 [10]: 2.37 mg/kg
TD50 at 4 h [11]: 80.1 mg/kg
ED50 [12]: 1.5 mg/kg
ED50 [13]: 3.93 mg/kg
TD50 [14]: > 500 mg/kg
number of animals protected in the subcutaneous bicuculline test ([15]; 54 mg/kg): 0/8
number of animals protected in the subcutaneous bicuculline test ([15]; 108 mg/kg): 3/8
number of animals protected in the subcutaneous bicuculline test ([15]; 216 mg/kg): 3/8
protection against convulsions induced by subcutaneous bicuculline [15, 26]: partial protection
acPTZ screen ED50 [16]: >54 mg/kg
slope (SE) of the TD50 [17]: 17.02(6.41)
neurotoxicity at the maximum dose utilized [18]: absence of neurotoxicity
